Measurements reported in the supplement of paper PMC10307832.

Legend:
Experiment in all cases: relative viability (nuclei count vs DMSO), 5 days (fraction); higher = more cells survive
[1] = compound: CN1CCN(CC1)C2=CC(=C(C=C2)NC3=NC=C4C(=N3)N(C5=CC=CC=C5C(=O)N4C)C)OC [XMD8-85] + N=C(N)NC(=N)NCCc1ccccc1 [Phenformin] (partner 250 µM)
Method in brief: (§1)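 Relative viability divides the nuclei count in treated wells by that in vehicle wells. Lung cancer cell lines were seeded in 1536-well plates, dosed by pin tool the next day, and fixed and stained after 5 days in one step with final 0.05% Triton X-100, 1% formaldehyde and 1 ug/ml Hoechst. Dosing was a single drug or a fixed anchor-drug dose plus five library-drug doses (not always all listed) in √10 steps, and values are medians of duplicate plates imaged at 4×.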

[2] = compound: O=C(O)C(Cc1ccccc1[N+](=O)[O-])=NNc1nc(-c2ccc(Cl)c(Cl)c2)cs1 (mixture of isomers) [4EGI-1] + CCNC(=O)c1noc(-c2cc(C(C)C)c(O)cc2O)c1-c1ccc(CN2CCOCC2)cc1 [Luminespib] (partner 0.01 µM)
Method in brief: as §1

[3] = compound: O=C(O)C(Cc1ccccc1[N+](=O)[O-])=NNc1nc(-c2ccc(Cl)c(Cl)c2)cs1 (mixture of isomers) [4EGI-1] + Cc1nc(NC(=O)N2CCC[C@H]2C(N)=O)sc1-c1ccnc(C(C)(C)C(F)(F)F)c1 [Alpelisib] (partner 2 µM)
Method in brief: as §1

[4] = compound: CN1CCN(CC1)C2=CC(=C(C=C2)NC3=NC=C4C(=N3)N(C5=CC=CC=C5C(=O)N4C)C)OC [XMD8-85] + CC1(C)CCC(c2ccc(Cl)cc2)=C(CN2CCN(c3ccc(C(=O)NS(=O)(=O)c4ccc(N[C@H](CCN5CCOCC5)CSc5ccccc5)c(S(=O)(=O)C(F)(F)F)c4)cc3)CC2)C1 [Navitoclax] (partner 0.5 µM)
Method in brief: as §1

| Cell Line | relative viability ([1]; first compound 0.08 µM) | relative viability ([1]; first compound 0.253 µM) | relative viability ([1]; first compound 0.8 µM) | relative viability ([1]; first compound 2.53 µM) | relative viability ([1]; first compound 8 µM) | relative viability ([2]; first compound 0.5 µM) | relative viability ([2]; first compound 1.581 µM) | relative viability ([2]; first compound 5 µM) | relative viability ([2]; first compound 15.81 µM) | relative viability ([2]; first compound 50 µM) | relative viability ([3]; first compound 0.5 µM) | relative viability ([3]; first compound 1.581 µM) | relative viability ([3]; first compound 5 µM) | relative viability ([3]; first compound 15.81 µM) | relative viability ([3]; first compound 50 µM) | relative viability ([4]; first compound 0.08 µM) | relative viability ([4]; first compound 0.253 µM) | relative viability ([4]; first compound 0.8 µM) | relative viability ([4]; first compound 2.53 µM) | relative viability ([4]; first compound 8 µM) |
| --- | --- | --- | --- | --- | --- | --- | --- | --- | --- | --- | --- | --- | --- | --- | --- | --- | --- | --- | --- | --- |
| A-427 | 0.278 | 0.268 | 0.346 | 0.335 | 0.208 | 1.04 | 0.658 | 1.01 | 0.793 | 0.315 | 1.04 | 0.968 | 1.07 | 0.991 | 0.759 | 0.993 | 0.995 | 1.03 | 1.03 | 0.95 |
| NCI-H1734 | 0.397 | 0.331 | 0.369 | 0.382 | 0.348 | 0.203 | 0.193 | 0.22 | 0.2 | 0.177 | 0.686 | 0.599 | 0.753 | 0.719 | 0.491 | 0.806 | 0.888 | 0.78 | 0.952 | 0.504 |
| PC-3 [JPC-3] | 0.431 | 0.446 | 0.467 | 0.537 | 0.514 | 0.829 | 0.717 | 0.718 | – | 0.543 | 1.09 | 0.97 | 0.979 | – | 0.884 | 0.796 | 0.785 | 0.861 | 0.966 | 0.769 |
| LCLC-97TM1 | 0.412 | 0.412 | 0.451 | 0.471 | 0.45 | 0.875 | 0.675 | 0.715 | 0.955 | 0.0986 | 0.213 | – | 0.239 | 0.236 | 0.211 | 0.299 | 0.474 | 0.442 | 0.329 | 0.796 |
| COR-L23 | 0.384 | 0.452 | 0.484 | 0.476 | 0.366 | 0.843 | 0.519 | 0.77 | 0.579 | 0.0992 | 0.873 | 0.509 | 0.885 | 0.562 | 0.112 | 1.24 | 1.06 | 1.02 | 0.871 | 0.629 |
| NCI-H1395 | 0.483 | 0.421 | 0.447 | 0.414 | 0.409 | 0.717 | 0.436 | 0.766 | 0.789 | 0.496 | 1.19 | – | 1.52 | 1.07 | 0.685 | 1.09 | 1.18 | 1.3 | 1.03 | 1.02 |
| LOU-NH91 | 0.661 | 0.774 | – | 0.835 | 0.523 | 0.351 | – | 0.398 | 0.328 | 0.34 | 0.814 | – | 0.726 | 0.466 | 0.538 | 0.69 | 0.764 | 0.639 | 0.7 | 0.546 |
| NCI-H441 | 0.954 | 0.689 | 0.81 | 1.12 | 0.571 | 0.375 | 0.315 | 0.294 | 0.306 | 0.292 | 0.787 | 0.758 | 0.656 | 0.743 | 0.301 | 0.664 | 0.565 | 1.01 | 1.11 | 0.278 |
| NCI-H2405 | 0.391 | 0.391 | 0.366 | 0.381 | 0.228 | 0.7 | 0.486 | 0.836 | 0.672 | 0.771 | 1.16 | 0.664 | 0.95 | 0.918 | 0.526 | 0.877 | 1.09 | 1.08 | 0.662 | 0.427 |
| SK-LU-1 | 0.382 | 0.59 | 0.653 | 0.68 | 0.467 | 0.191 | 0.208 | 0.208 | 0.201 | 0.199 | 1.23 | 1.01 | 1.26 | 0.806 | 0.232 | 0.839 | 0.795 | 1.1 | 0.888 | 0.293 |
| NCI-H838 | 0.528 | 0.553 | 0.604 | 0.617 | 0.283 | 0.335 | – | 0.226 | 0.229 | 0.144 | 1.02 | – | 1.06 | 0.907 | 0.524 | 1.15 | 1.13 | 1.16 | 1.15 | 0.536 |
| HCC-15 | 0.465 | 0.415 | 0.451 | 0.468 | 0.265 | 0.25 | 0.437 | 0.268 | 0.157 | 0.152 | 0.923 | 0.886 | 0.968 | 0.809 | 0.519 | 0.731 | 0.642 | 0.698 | 0.655 | 0.499 |
| EPLC-272H | 0.281 | 0.272 | 0.318 | 0.358 | 0.272 | 0.498 | – | 0.318 | 0.251 | 0.206 | 0.98 | 0.868 | 0.905 | 0.911 | 0.873 | – | 1.3 | 1.08 | 1.05 | 0.679 |
| NCI-H1755 | 0.608 | 0.65 | 0.429 | 0.581 | 0.495 | 0.583 | 0.665 | 0.418 | 0.42 | 0.327 | 0.956 | 1.03 | 0.88 | 0.851 | 0.445 | 1.03 | 1.04 | 0.953 | 0.984 | 0.838 |
| EMC-BAC-2 | 0.475 | 0.518 | – | 0.517 | 0.429 | 1.25 | 1.01 | 1.16 | 1.15 | 1.06 | 0.733 | 0.628 | 0.72 | 0.485 | 0.656 | 1.12 | 1.23 | 1.16 | 1.13 | 1.16 |
| 201T | 0.437 | 0.467 | 0.444 | 0.469 | 0.447 | 1.08 | 0.973 | 1.09 | 0.92 | 0.782 | 1.03 | 0.997 | 1.09 | 1.03 | 0.97 | 1.2 | 1.24 | 1.26 | 1.19 | 1.08 |
